According to US5916759A, “Cholesterol oxidase from Brevibacterium sterolicum” (Boehringer Mannheim GmbH, priority 1993, dated 1999):

What was measured:
[1] = molecular target: Cholesterol oxidase I from Brevibacterium sterolicum (Brevibacterium sterolicum, UniProt P22637); settings: read-out: KM (affinity for cholesterol); cited from earlier work
[2] = substrate: CC(C)CCC[C@@H](C)[C@H]1CC[C@H]2[C@@H]3CC=C4C[C@@H](O)CC[C@]4(C)[C@H]3CC[C@]12C; test: KM value for cholesterol of the cholesterol oxidase according to the invention; type: biochemical, Brevibacterium sterolicum; settings: other: in 0.5 mol/l potassium phosphate buffer pH 7.5 at 25° C.
Experimental: This cholesterol oxidase has a molecular weight of 60 kD, an isoelectric point of ca. 5.5 (each measured in the Phast System, Pharmacia LKB) and a KM value for cholesterol of 1×10^-4 mol/l (in 0.5 mol/l potassium phosphate buffer pH 7.5 at 25° C.) and is active in a pH range of 5.5 to 8.0.
3 ml potassium phosphate buffer (0.5 mol/l, pH 7.5) containing 0.4% Thesit® (Boehringer Mannheim GmbH, Catalogue No. 006190),
0.1 ml cholesterol solution (0.4% cholesterol, 10% l-propanol, 10% Thesit®),
0.02 ml H2 O2 (0.49 mol/l in redistilled water), it is mixed, after addition of 0.02 ml catalase (from bovine liver, 20 mg protein/ml, specific activity ca. 65,000 U/mg, Boehringer Mannheim GmbH, Catalogue No. 0156744 diluted immediately to 0.075-0.15 U/ml before measurement with ice-cold potassium phosphate buffer, containing 0.4% Thesit) it is again mixed, the solution is brought to a temperature of 25° C. and subsequently the reaction is started by addition of 0.05 ml sample solution. After careful mixing the change in absorbance at 240 nm is monitored and the activity of cholesterol oxidase is determined from the linear region of the absorbance curve: [formula] in which .di-elect cons. 240=15.5 mmol^-1 ×1×cm^-1.

Sequence of Cholesterol oxidase I from Brevibacterium sterolicum (P22637 46-552): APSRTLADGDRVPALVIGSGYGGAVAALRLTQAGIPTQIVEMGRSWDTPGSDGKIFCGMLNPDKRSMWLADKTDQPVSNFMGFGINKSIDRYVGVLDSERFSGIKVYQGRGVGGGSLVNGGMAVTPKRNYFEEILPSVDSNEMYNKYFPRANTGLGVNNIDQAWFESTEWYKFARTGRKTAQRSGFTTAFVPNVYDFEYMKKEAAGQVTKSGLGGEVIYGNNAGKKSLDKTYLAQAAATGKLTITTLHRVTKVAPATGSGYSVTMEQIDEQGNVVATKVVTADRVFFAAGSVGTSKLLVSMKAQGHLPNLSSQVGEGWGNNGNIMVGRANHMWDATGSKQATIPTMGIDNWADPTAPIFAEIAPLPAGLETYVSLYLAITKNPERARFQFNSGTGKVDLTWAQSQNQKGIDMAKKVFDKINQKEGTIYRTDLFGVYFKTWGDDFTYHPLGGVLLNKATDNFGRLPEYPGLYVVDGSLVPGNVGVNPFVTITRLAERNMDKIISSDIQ

Molecule	Km [1]	Km [2]
CC(C)CCC[C@@H](C)[C@H]1CC[C@H]2[C@@H]3CC=C4C[C@@H](O)CC[C@]4(C)[C@H]3CC[C@]12C [cholesterol, 5-cholesten-3-β-ol]	1100 µM	
cholesterol oxidase from Brevibacterium sterolicum, SEQ ID NO 2 (Brevibacterium sterolicum) (protein) STGPVAPLPTPPNFPNDIALFQQAYQNWSKEIMLDATWVCSPKTPQDVVRLANWAHEHDYKIRPRGAMHGWTPLTVEKGANVEKVILADTMTHLNGITVNTGGPVATVTAGAGASIEAIVTELQKHDLGWANLPAPGVLSIGGALAVNAHGAALPAVGQTTLPGHTYGSLSNLVTELTAVVWNGTTYALETYQRNDPRITPLLTNLGRCFLTSVTMQAGPNFRQRCQSYTDIPWRELFAPKGADGRTFEKFVAESGGAEAIWYPFTEKPWMKVWTVSPTKPDSSNEVGSLGSAGSLVGKPPQAREVSGPYNYIFSDNLPEPITDMIGAINAGNPGIAPLFGPAMYEITKLGLAATNANDIWGWSKDVQFYIKATTLRLTEGGGAVVTSRANIATVINDFTEWFHERIEFYRAKGEFPLNGPVEIRCCGLDQAADVKVPSVGPPTISATRPRPDHPDWDVAIWLNVLGVPGTPGMFEFYREMEQWMRSHYNNDDATFRPEWSKGWAFGPDPYTDNDIVTNKMRATYIEGVPTTENWDTARARYNQIDPHRVFTNGFMDKLLP		100 µM
